Experimental data reported in PubChem BioAssay (NCI).
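Dose response: 5 concentrations. Exposure: 48 h. Format: 96-well plates. Endpoint: linear interpolation; highest concentration if not reached. GI50 is the concentration that inhibits growth by half. TGI is the concentration that stops growth completely.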

What was measured:
Test in all cases: NCI-60 cell line screen, 48 h
COLO 205 colon = tested on: COLO 205 colon
HCT-116 colon = tested on: HCT-116 colon
M14 melanoma = tested on: M14 melanoma
SF-268 CNS = tested on: SF-268 CNS
U251 CNS = tested on: U251 CNS
HOP-62 NSCLC = tested on: HOP-62 NSCLC
NCI-H226 lung = tested on: NCI-H226 lung
RXF 393 renal = tested on: RXF 393 renal
CCRF-CEM leukemia = tested on: CCRF-CEM leukemia
OVCAR-5 ovarian = tested on: OVCAR-5 ovarian
SK-MEL-5 melanoma = tested on: SK-MEL-5 melanoma
HOP-92 NSCLC = tested on: HOP-92 NSCLC
SN12C renal = tested on: SN12C renal
OVCAR-8 ovarian = tested on: OVCAR-8 ovarian
RPMI-8226 leukemia = tested on: RPMI-8226 leukemia
HL-60(TB) leukemia = tested on: HL-60(TB) leukemia
UO-31 renal = tested on: UO-31 renal
K-562 leukemia = tested on: K-562 leukemia
786-0 renal = tested on: 786-0 renal
DU-145 prostate = tested on: DU-145 prostate
HS 578T breast = tested on: HS 578T breast
HCT-15 colon = tested on: HCT-15 colon
SF-539 CNS = tested on: SF-539 CNS
NCI/ADR-RES ovarian = tested on: NCI/ADR-RES ovarian
BT-549 breast = tested on: BT-549 breast
KM12 colon = tested on: KM12 colon
ACHN renal = tested on: ACHN renal
OVCAR-3 ovarian = tested on: OVCAR-3 ovarian
SW-620 colon = tested on: SW-620 colon
MCF7 breast = tested on: MCF7 breast
HT29 colon = tested on: HT29 colon
MOLT-4 leukemia = tested on: MOLT-4 leukemia
NCI-H460 lung = tested on: NCI-H460 lung
TK-10 renal = tested on: TK-10 renal
A549 NSCLC = tested on: A549 NSCLC
A498 renal = tested on: A498 renal
HCC-2998 colon = tested on: HCC-2998 colon
SNB-19 CNS = tested on: SNB-19 CNS
T-47D breast = tested on: T-47D breast
MDA-MB-435 = tested on: MDA-MB-435
MALME-3M melanoma = tested on: MALME-3M melanoma
LOX IMVI melanoma = tested on: LOX IMVI melanoma
OVCAR-4 ovarian = tested on: OVCAR-4 ovarian
UACC-257 melanoma = tested on: UACC-257 melanoma
MDA-MB-231 breast = tested on: MDA-MB-231 breast
SNB-75 CNS = tested on: SNB-75 CNS
PC-3 prostate = tested on: PC-3 prostate
IGROV1 ovarian = tested on: IGROV1 ovarian
SK-MEL-28 melanoma = tested on: SK-MEL-28 melanoma
NCI-H23 lung = tested on: NCI-H23 lung
UACC-62 melanoma = tested on: UACC-62 melanoma
SK-MEL-2 melanoma = tested on: SK-MEL-2 melanoma
SK-OV-3 ovarian = tested on: SK-OV-3 ovarian
CAKI-1 renal = tested on: CAKI-1 renal
NCI-H522 lung = tested on: NCI-H522 lung
SF-295 CNS = tested on: SF-295 CNS

O=C(O)c1cn(C2CC2)c2cc(N3CCN(S(=O)(=O)c4ccc(Cl)c(Cl)c4)CC3)c(F)cc2c1=O
GI50 (COLO 205 colon): 3.5 µM
TGI (COLO 205 colon): 11.9 µM
GI50 (HCT-116 colon): 3.86 µM
TGI (HCT-116 colon): > 100 µM
GI50 (M14 melanoma): 4.06 µM
TGI (M14 melanoma): > 100 µM
GI50 (SF-268 CNS): 4.77 µM
TGI (SF-268 CNS): > 100 µM
GI50 (U251 CNS): 3.33 µM
TGI (U251 CNS): > 100 µM
GI50 (HOP-62 NSCLC): 4.77 µM
TGI (HOP-62 NSCLC): > 100 µM
GI50 (NCI-H226 lung): 3.58 µM
TGI (NCI-H226 lung): > 100 µM
GI50 (RXF 393 renal): 2.98 µM
TGI (RXF 393 renal): 9.51 µM
GI50 (CCRF-CEM leukemia): 2.61 µM
TGI (CCRF-CEM leukemia): > 100 µM
GI50 (OVCAR-5 ovarian): 4.14 µM
TGI (OVCAR-5 ovarian): > 100 µM
GI50 (SK-MEL-5 melanoma): 2.04 µM
TGI (SK-MEL-5 melanoma): 4.42 µM
GI50 (HOP-92 NSCLC): 1.54 µM
TGI (HOP-92 NSCLC): 5.71 µM
GI50 (SN12C renal): 2.97 µM
TGI (SN12C renal): > 100 µM
GI50 (OVCAR-8 ovarian): 3.33 µM
TGI (OVCAR-8 ovarian): > 100 µM
GI50 (RPMI-8226 leukemia): 2.53 µM
TGI (RPMI-8226 leukemia): 7.59 µM
GI50 (HL-60(TB) leukemia): 2.04 µM
TGI (HL-60(TB) leukemia): 5.17 µM
GI50 (UO-31 renal): 2.58 µM
TGI (UO-31 renal): > 100 µM
GI50 (K-562 leukemia): 3.92 µM
TGI (K-562 leukemia): > 100 µM
GI50 (786-0 renal): 4.02 µM
TGI (786-0 renal): > 100 µM
GI50 (DU-145 prostate): 4.31 µM
TGI (DU-145 prostate): > 100 µM
GI50 (HS 578T breast): 4.26 µM
TGI (HS 578T breast): > 100 µM
GI50 (HCT-15 colon): 3.3 µM
TGI (HCT-15 colon): > 100 µM
GI50 (SF-539 CNS): 3.39 µM
TGI (SF-539 CNS): > 100 µM
GI50 (NCI/ADR-RES ovarian): 4.01 µM
TGI (NCI/ADR-RES ovarian): > 100 µM
GI50 (BT-549 breast): 2.98 µM
TGI (BT-549 breast): > 100 µM
GI50 (KM12 colon): 3.62 µM
TGI (KM12 colon): > 100 µM
GI50 (ACHN renal): 3.1 µM
TGI (ACHN renal): > 100 µM
GI50 (OVCAR-3 ovarian): 3.9 µM
TGI (OVCAR-3 ovarian): 44 µM
GI50 (SW-620 colon): 4.05 µM
TGI (SW-620 colon): > 100 µM
GI50 (MCF7 breast): 2.84 µM
TGI (MCF7 breast): > 100 µM
GI50 (HT29 colon): 3.77 µM
TGI (HT29 colon): > 100 µM
GI50 (MOLT-4 leukemia): 4 µM
TGI (MOLT-4 leukemia): > 100 µM
GI50 (NCI-H460 lung): 3.66 µM
TGI (NCI-H460 lung): > 100 µM
GI50 (TK-10 renal): 4.31 µM
TGI (TK-10 renal): > 100 µM
GI50 (A549 NSCLC): 3.08 µM
TGI (A549 NSCLC): > 100 µM
GI50 (A498 renal): 2.91 µM
TGI (A498 renal): > 100 µM
GI50 (HCC-2998 colon): 4.46 µM
TGI (HCC-2998 colon): > 100 µM
GI50 (SNB-19 CNS): 3.25 µM
TGI (SNB-19 CNS): > 100 µM
GI50 (T-47D breast): 3.77 µM
TGI (T-47D breast): > 100 µM
GI50 (MDA-MB-435): 2.97 µM
TGI (MDA-MB-435): > 100 µM
GI50 (MALME-3M melanoma): 2.3 µM
TGI (MALME-3M melanoma): 5.24 µM

COc1ccc(/C=C/c2nc(N3CCOCC3)c3cc(F)c(F)cc3n2)cc1OC
GI50 (COLO 205 colon): 3.47 µM
TGI (COLO 205 colon): 20.7 µM
GI50 (HCT-116 colon): 3.53 µM
TGI (HCT-116 colon): > 100 µM
GI50 (M14 melanoma): 2.75 µM
TGI (M14 melanoma): 26.8 µM
GI50 (SF-268 CNS): 9.85 µM
TGI (SF-268 CNS): > 100 µM
GI50 (LOX IMVI melanoma): 5.07 µM
TGI (LOX IMVI melanoma): > 100 µM
GI50 (U251 CNS): 5.9 µM
TGI (U251 CNS): > 100 µM
GI50 (HOP-62 NSCLC): 50.7 µM
TGI (HOP-62 NSCLC): > 100 µM
GI50 (NCI-H226 lung): 3.07 µM
TGI (NCI-H226 lung): > 100 µM
GI50 (OVCAR-4 ovarian): 1.43 µM
TGI (OVCAR-4 ovarian): > 100 µM
GI50 (RXF 393 renal): 5.06 µM
TGI (RXF 393 renal): > 100 µM
GI50 (UACC-257 melanoma): 4.41 µM
TGI (UACC-257 melanoma): > 100 µM
GI50 (CCRF-CEM leukemia): 4.7 µM
TGI (CCRF-CEM leukemia): > 100 µM
GI50 (MDA-MB-231 breast): 6.56 µM
TGI (MDA-MB-231 breast): > 100 µM
GI50 (OVCAR-5 ovarian): 6.54 µM
TGI (OVCAR-5 ovarian): > 100 µM
GI50 (SK-MEL-5 melanoma): 1.18 µM
TGI (SK-MEL-5 melanoma): 2.81 µM
GI50 (HOP-92 NSCLC): 4.13 µM
TGI (HOP-92 NSCLC): 87.2 µM
GI50 (SN12C renal): 5.36 µM
TGI (SN12C renal): > 100 µM
GI50 (SNB-75 CNS): 6.14 µM
TGI (SNB-75 CNS): > 100 µM
GI50 (PC-3 prostate): 2.66 µM
TGI (PC-3 prostate): 33.9 µM
GI50 (OVCAR-8 ovarian): 4.57 µM
TGI (OVCAR-8 ovarian): > 100 µM
GI50 (RPMI-8226 leukemia): 2.7 µM
TGI (RPMI-8226 leukemia): > 100 µM
GI50 (IGROV1 ovarian): 47.4 µM
TGI (IGROV1 ovarian): > 100 µM
GI50 (SK-MEL-28 melanoma): 5.53 µM
TGI (SK-MEL-28 melanoma): > 100 µM
GI50 (NCI-H23 lung): 6.05 µM
TGI (NCI-H23 lung): > 100 µM
GI50 (HL-60(TB) leukemia): 4 µM
TGI (HL-60(TB) leukemia): > 100 µM
GI50 (UO-31 renal): 3.65 µM
TGI (UO-31 renal): > 100 µM
GI50 (UACC-62 melanoma): 3.55 µM
TGI (UACC-62 melanoma): > 100 µM
GI50 (786-0 renal): 4.44 µM
TGI (786-0 renal): > 100 µM
GI50 (DU-145 prostate): 8.79 µM
TGI (DU-145 prostate): > 100 µM
GI50 (HS 578T breast): 54.8 µM
TGI (HS 578T breast): > 100 µM
GI50 (HCT-15 colon): 3 µM
TGI (HCT-15 colon): > 100 µM
GI50 (SF-539 CNS): > 100 µM
TGI (SF-539 CNS): > 100 µM
GI50 (NCI/ADR-RES ovarian): 4.09 µM
TGI (NCI/ADR-RES ovarian): > 100 µM
GI50 (BT-549 breast): 2.83 µM
TGI (BT-549 breast): 19.8 µM
GI50 (KM12 colon): 4.59 µM
TGI (KM12 colon): > 100 µM
GI50 (SK-MEL-2 melanoma): 9.48 µM
TGI (SK-MEL-2 melanoma): > 100 µM
GI50 (ACHN renal): 4.35 µM
TGI (ACHN renal): > 100 µM
GI50 (OVCAR-3 ovarian): 6.08 µM
TGI (OVCAR-3 ovarian): > 100 µM
GI50 (SW-620 colon): 6.1 µM
TGI (SW-620 colon): > 100 µM
GI50 (MCF7 breast): 2.54 µM
TGI (MCF7 breast): > 100 µM
GI50 (MOLT-4 leukemia): 4.11 µM
TGI (MOLT-4 leukemia): > 100 µM
GI50 (NCI-H460 lung): 5.86 µM
TGI (NCI-H460 lung): > 100 µM
GI50 (TK-10 renal): 4.84 µM
TGI (TK-10 renal): > 100 µM
GI50 (SK-OV-3 ovarian): 11 µM
TGI (SK-OV-3 ovarian): > 100 µM
GI50 (A549 NSCLC): 5.87 µM
TGI (A549 NSCLC): > 100 µM
GI50 (A498 renal): 3.41 µM
TGI (A498 renal): > 100 µM
GI50 (HCC-2998 colon): 7.49 µM
TGI (HCC-2998 colon): > 100 µM
GI50 (CAKI-1 renal): 3.23 µM
TGI (CAKI-1 renal): > 100 µM
GI50 (NCI-H522 lung): 6.86 µM
TGI (NCI-H522 lung): > 100 µM
GI50 (SNB-19 CNS): 5.2 µM
TGI (SNB-19 CNS): > 100 µM
GI50 (T-47D breast): 1.49 µM
TGI (T-47D breast): 9.72 µM
GI50 (MDA-MB-435): 3.18 µM
TGI (MDA-MB-435): > 100 µM
GI50 (SF-295 CNS): 3.9 µM
TGI (SF-295 CNS): > 100 µM
